Consider 13 compounds from patent US9340493B2, “Hydroxamic acid derivatives useful as antibacterial agents” (Pfizer Inc., priority 2008, dated 2016).

≈ marks a conversion by molar mass, not a printed value.

Experiment [1] deals with Staphylococcus aureus ATCC 29213. The experiment is described as follows: MIC determination, S. aureus ATCC 29213. In kind it is cell-based. The conditions noted are these: ATCC29213, CLSI quality control reference strain, * = arithmetic mean of 2-6 MIC determinations, read-out: MIC (ug/mL) S. aureus ATCC 29213. An outline of the steps: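 MIC was measured by dilution susceptibility testing following CLSI guidelines (M7-A7; M100-S18). The test organism is the CLSI quality-control reference strain.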

Experiment [2] relates to Acinetobacter baumanii/haemolyticus. As to the kind of experiment: MIC determination, A. baumanii/haemolyticus. The format is cell-based. As to conditions: Acinetobacter baumannii; multidrug-resistant clinical isolate; * = arithmetic mean of 2-6 MIC determinations; read-out: MIC (ug/mL) A. baumanii/haemolyticus. The method in brief:
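MICs were determined by CLSI broth dilution (M7-A7, M100-S18) against a multidrug-resistant clinical isolate of Acinetobacter baumanii/haemolyticus.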

Experiment [3] deals with Enterobacter aerogenes. The experiment is described as follows: MIC determination, E. aerogenes. In kind it is cell-based. The conditions noted are these: Klebsiella aerogenes; quinolone-resistant, ESBL-expressing clinical isolate; * = arithmetic mean of 2-6 MIC determinations; read-out: MIC (ug/mL) E. aerogenes. An outline of the steps: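 Clinical E. aerogenes isolate, quinolone-resistant and ESBL-expressing. MIC measured in vitro by dilution testing according to CLSI guidelines (M7-A7, M100-S18).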

Experiment [4] deals with Klebsiella pneumoniae. The experiment is described as follows: MIC determination, K. pneumoniae. The format is cell-based. As to conditions: ciprofloxacin-resistant, ESBL-expressing clinical isolate, * = arithmetic mean of 2-6 MIC determinations, read-out: MIC (ug/mL) K. pneumoniae. An outline of the steps: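 MIC determined by broth dilution per CLSI M7-A7 and M100-S18 guidelines. Strain: ciprofloxacin-resistant, ESBL-expressing clinical isolate of K. pneumoniae.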

For experiment [5], the system named is Escherichia coli EC-1. As to the kind of experiment: MIC determination, E. coli EC-1. The format is cell-based. The conditions noted are these: EC1, EC-1: VOGEL, * = arithmetic mean of 2-6 MIC determinations, read-out: MIC (ug/mL) E. coli EC-1. The method in brief: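 Minimum inhibitory concentration against Escherichia coli EC-1 was determined in vitro by dilution susceptibility testing under CLSI M7-A7 and M100-S18 guidelines.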

In experiment [6] the test system is P. aeruginosa PAO280. The experiment is described as follows: MIC determination, P. aeruginosa PAO280. The format is cell-based. As to conditions: Pseudomonas aeruginosa, PAO280, read-out: MIC (ug/mL) P. aeruginosa PAO280. An outline of the steps: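 Broth dilution MIC per CLSI M7-A7/M100-S18 guidelines. Strain PAO280 lacks efflux pumps MexAB-oprM, MexXY and MexZ.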

Experiment [7] addresses T1, Pseudomonas aeruginosa LpxC enzyme (Pseudomonas aeruginosa, UniProt P47205).
T1 construct: made in house; host or cells: E. coli
T1 sequence (P47205 1-303): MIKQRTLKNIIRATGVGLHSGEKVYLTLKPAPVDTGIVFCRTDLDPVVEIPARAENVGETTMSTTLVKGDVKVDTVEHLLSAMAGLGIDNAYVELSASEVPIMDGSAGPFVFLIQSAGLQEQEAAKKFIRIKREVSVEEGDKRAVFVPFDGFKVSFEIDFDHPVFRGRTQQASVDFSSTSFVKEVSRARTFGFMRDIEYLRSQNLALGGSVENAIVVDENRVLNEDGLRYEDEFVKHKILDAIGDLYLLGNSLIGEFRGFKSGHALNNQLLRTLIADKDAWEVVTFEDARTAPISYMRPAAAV
The experiment is described as follows: IC50 assay, LpxC enzyme from P. aeruginosa. The format is biochemical. The conditions noted are these: 0.5 nM enzyme, 25° C., pH 8.0, 20 min; ** = average of 2-8 assays. The method in brief:
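P. aeruginosa LpxC (0.5 nM, expressed in E. coli) reacted with 0.5 uM ³H-acetyl-labelled UDP-3-O-(R-3-hydroxydecanoyl)-GlcNAc in 50 mM sodium phosphate pH 8.0 with 1 mg/ml BSA at 25 °C for 20 min. Charcoal stopped the reaction, and filtrate radioactivity was counted by scintillation after no-enzyme background subtraction.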

Experiment [8] concerns P. aeruginosa UI-18. As to the kind of experiment: MIC determination, P. aeruginosa UI-18. The format is cell-based. The conditions noted are these: Pseudomonas aeruginosa, UI18; wild-type; * = arithmetic mean of 2-6 MIC determinations; read-out: MIC (ug/mL) P. aeruginosa UI-18. An outline of the steps:
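MIC by broth dilution following CLSI M7-A7 and M100-S18 guidelines, tested against wild-type P. aeruginosa UI-18.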

Turning to `Cc1cccc(-c2ccc(COC(C)(C(=O)NO)C(=O)NCc3cc(C)on3)cc2)n1` (centres unmarked) [Example 89, N-hydroxy-2-methyl-N′-[(5-methylisoxazol-3-yl)methyl]-2-{[4-(6-methylpyridin-2-yl)benzyl]oxy}malonamide], the MIC in experiment [1] was above 64 µg/mL; in experiment [2] it was above 64 µg/mL; in experiment [3], above 64 µg/mL; in experiment [4], above 64 µg/mL; in experiment [5], above 64 µg/mL; in experiment [6] it was 1 µg/mL (≈ 2.36 µM). Besides, the MIC in experiment [8] is above 64 µg/mL. For the same compound, half-maximal inhibition in experiment [7] (IC50) was put at 0.0135 µM.

In the case of `CC(CO)(OCc1ccc(-c2ccc(Cl)cc2)cc1)C(=O)NO` (centres unmarked) [Example 62, 2-[(4′-chlorobiphenyl-4-yl)methoxy]-N,3-dihydroxy-2-methylpropanamide], the MIC in experiment [1] was above 32 µg/mL; in experiment [2] it was above 32 µg/mL; in experiment [3], above 32 µg/mL; in experiment [4], above 32 µg/mL; in experiment [5], above 32 µg/mL; in experiment [6] it was 1 µg/mL (≈ 2.98 µM). In addition, in experiment [8], the MIC was found to be 32 µg/mL (≈ 95.3 µM). In addition, the IC50 – broadly, the concentration that inhibits the measured activity by half – in experiment [7] was found to be 0.00417 µM.

For `Cn1nncc1[C@H](O)[C@](C)(OCc1ccc(-c2ccccc2)cc1)C(=O)NO` [Example 19, (2S,3S)-2-(biphenyl-4-ylmethoxy)-N,3-dihydroxy-2-methyl-3-(1-methyl-1H-1,2,3-triazol-5-yl)propanamide], the MIC was above 64 µg/mL in experiment [1]; above 64 µg/mL in experiment [2]; above 64 µg/mL in experiment [3]; above 64 µg/mL in experiment [4]; above 64 µg/mL in experiment [5]; 2 µg/mL (≈ 5.23 µM) in experiment [6]. The MIC in experiment [8] was above 64 µg/mL. The same compound showed an IC50 in experiment [7] of 0.00256 µM.

On to `CC(OCc1ccc(-c2ccccc2)cc1)(C(=O)NO)C(=O)NCc1ccncn1` (centres unmarked) [Example 71, 2-(biphenyl-4-ylmethoxy)-N-hydroxy-2-methyl-N′-(pyrimidin-4-ylmethyl)malonamide], for which the MIC in experiment [1] was above 64 µg/mL; in experiment [2], above 64 µg/mL; in experiment [3], above 64 µg/mL; in experiment [4], above 64 µg/mL; in experiment [5] it was 32 µg/mL (≈ 78.7 µM); in experiment [6], 0.125 µg/mL (≈ 0.308 µM). Also, the MIC in experiment [8] was determined as 16 µg/mL (≈ 39.4 µM). In experiment [7], this compound had an IC50 of 0.00394 µM.

`Cc1ccc(-c2ccc(CO[C@](C)(C(=O)NO)[C@@H](O)c3cc(C)on3)cc2)cc1` [Example 39, (2S,3S)-N,3-dihydroxy-2-methyl-2-[(4′-methylbiphenyl-4-yl)methoxy]-3-(5-methylisoxazol-3-yl)propanamide]: the MIC in experiment [1] was above 64 µg/mL; in experiment [2] it was 4 µg/mL (≈ 10.1 µM); in experiment [3], 32 µg/mL (≈ 80.7 µM); in experiment [4], 4 µg/mL (≈ 10.1 µM); in experiment [5], 2 µg/mL (≈ 5.04 µM); in experiment [6], 0.03 µg/mL (≈ 0.0757 µM). For the same compound, the MIC in experiment [8] amounted to 1 µg/mL (≈ 2.52 µM). In experiment [7], the IC50 is 0.000589 µM.

Regarding `C[C@@](OCc1ccc(-c2ccccc2)cc1)(C(=O)NO)[C@@H](O)c1ccc(CO)o1` [Example 14, (2S,3S)-2-(biphenyl-4-ylmethoxy)-N,3-dihydroxy-3-[5-(hydroxymethyl)-2-furyl]-2-methylpropanamide], the MIC in experiment [1] is above 64 µg/mL; in experiment [2], above 64 µg/mL; in experiment [3] it was above 64 µg/mL; in experiment [4] it was above 64 µg/mL; in experiment [5], above 64 µg/mL; in experiment [6] it was 0.5 µg/mL (≈ 1.26 µM). For the same compound, the MIC in experiment [8] worked out at 16 µg/mL (≈ 40.3 µM). The compound also yielded an IC50 in experiment [7] of 0.000582 µM.

As for `Cc1cc(CNC(=O)C(C)(OCc2ccc(-c3ccc(F)cn3)cc2)C(=O)NO)no1` (centres unmarked) [Example 88, 2-{[4-(5-fluoropyridin-2-yl)benzyl]oxy}-N-hydroxy-2-methyl-N′-[(5-methylisoxazol-3-yl)methyl]malonamide], the MIC is above 64 µg/mL in experiment [1]; above 64 µg/mL in experiment [2]; above 64 µg/mL in experiment [3]; above 64 µg/mL in experiment [4]; above 64 µg/mL in experiment [5]; 0.5 µg/mL (≈ 1.17 µM) in experiment [6]. The MIC in experiment [8] was 64 µg/mL (≈ 149 µM). In addition, the half-maximal inhibitory concentration (IC50) in experiment [7] is 0.00698 µM.

As to `Cc1cc(-c2ccc(COC(C)(C(=O)NO)C(=O)NCc3cc(C)on3)cc2)ccn1` (centres unmarked) [Example 86, N-hydroxy-2-methyl-N′-[(5-methylisoxazol-3-yl)methyl]-2-{[4-(2-methylpyridin-4-yl)benzyl]oxy}malonamide], the MIC in experiment [1] is above 64 µg/mL; in experiment [2], above 64 µg/mL; in experiment [3], above 64 µg/mL; in experiment [4], above 64 µg/mL; in experiment [5], above 64 µg/mL; in experiment [6] it was 0.25 µg/mL (≈ 0.589 µM). Besides, the MIC in experiment [8] was 16 µg/mL (≈ 37.7 µM). Further, the IC50 in experiment [7] was 0.00681 µM.

As for `C[S+]([O-])c1cc([C@H](O)[C@](C)(OCc2ccc(-c3ccc(F)cc3)cc2)C(=O)NO)no1` (stereo partly drawn) [Example 44, (2S,3S)-2-[(4′-fluorobiphenyl-4-yl)methoxy]-N,3-dihydroxy-2-methyl-3-[5-(methylsulfinyl)isoxazol-3-yl]propanamide], the MIC in experiment [1] was above 64 µg/mL; in experiment [2], 32 µg/mL (≈ 71.4 µM); in experiment [3] it was above 64 µg/mL; in experiment [4], 32 µg/mL (≈ 71.4 µM); in experiment [5], 8 µg/mL (≈ 17.8 µM); in experiment [6], 0.015 µg/mL (≈ 0.0334 µM). Also, the MIC in experiment [8] was 1 µg/mL (≈ 2.23 µM). The compound further came in with an IC50 in experiment [7] of 0.000283 µM.

Regarding `CC(CO)(OCc1ccc(-c2ccc(-c3cc(CN4CCOCC4)no3)cc2)cc1)C(=O)NO` (centres unmarked) [Example 55, N,3-dihydroxy-2-methyl-2-({4′-[3-(morpholin-4-ylmethyl)isoxazol-5-yl]biphenyl-4-yl}methoxy)propanamide], the MIC in experiment [1] was above 64 µg/mL; in experiment [2], above 64 µg/mL; in experiment [3], above 64 µg/mL; in experiment [4], above 64 µg/mL; in experiment [5] it was above 64 µg/mL; in experiment [6] it was 0.5 µg/mL (≈ 1.07 µM). Also, in experiment [8], the MIC was found to be 32 µg/mL (≈ 68.4 µM). In experiment [7], this compound gave an IC50 of 0.00399 µM.

As for `CC(OCc1ccc(-c2ccccc2)cc1)(C(=O)NO)C(=O)NCc1nc(-c2ccccc2)no1` (centres unmarked) [Example 69, 2-(biphenyl-4-ylmethoxy)-N-hydroxy-2-methyl-N′-[(3-phenyl-1,2,4-oxadiazol-5-yl)methyl]malonamide], the MIC is above 16 µg/mL in experiment [1]; 16 µg/mL (≈ 33.9 µM) in experiment [2]; above 16 µg/mL in experiment [3]; above 16 µg/mL in experiment [4]; 16 µg/mL (≈ 33.9 µM) in experiment [5]; 0.75 µg/mL (≈ 1.59 µM) in experiment [6]. In addition, in experiment [8], the MIC worked out at 12 µg/mL (≈ 25.4 µM). The compound further came in with an IC50 in experiment [7] of 0.00446 µM.

For `C[C@@](OCc1ccc(-c2ccccc2)cc1)(C(=O)NO)[C@@H](O)c1ccon1` [Example 31, (2S,3S)-2-(biphenyl-4-ylmethoxy)-N,3-dihydroxy-3-isoxazol-3-yl-2-methylpropanamide], the MIC was above 64 µg/mL in experiment [1]; 32 µg/mL (≈ 86.9 µM) in experiment [2]; above 64 µg/mL in experiment [3]; 48 µg/mL (≈ 130 µM) in experiment [4]; 16 µg/mL (≈ 43.4 µM) in experiment [5]; 0.06 µg/mL (≈ 0.163 µM) in experiment [6]. Moreover, the MIC in experiment [8] turned out to be 6 µg/mL (≈ 16.3 µM). The compound further came in with an IC50 in experiment [7] of 0.000406 µM.

For the compound `C[C@@](OCc1ccc(-c2ccccc2)cc1)(C(=O)NO)[C@@H](O)c1ccno1` [Example 16, (2S,3R)-2-(biphenyl-4-ylmethoxy)-N,3-dihydroxy-3-isoxazol-5-yl-2-methylpropanamide], the MIC is above 64 µg/mL in experiment [1]; above 64 µg/mL in experiment [2]; above 64 µg/mL in experiment [3]; above 64 µg/mL in experiment [4]; 64 µg/mL (≈ 174 µM) in experiment [5]; 0.125 µg/mL (≈ 0.339 µM) in experiment [6]. The MIC in experiment [8] is 8 µg/mL (≈ 21.7 µM). The compound also gave an IC50 in experiment [7] of 0.00079 µM.
